Reference: ChEMBL document CHEMBL2021794, “Synthesis, σ₁, σ₂-receptors binding affinity and antiproliferative action of new C1-substituted adamantanes” (Bioorg Med Chem, 2012)
pIC50: −log10 of the molar value. The source made the active and inactive calls. The calls are words filed in the database; no cut-off is given here.

Assays:
[1] = system: PC-3; experiment: Cell cycle arrest in human PC3 cells assessed as accumulation at < G1 phase at 0.5 uM after 24 hrs by propidium iodide staining based flow cytometry (reference value: 4%); format: functional
[2] = system: BXPC-3; experiment: Induction of apoptosis in human BxPC3 cells assessed as cleaved caspase-3 containing cells at 50 uM after 24 hrs by FACS analysis (reference value: 10%); format: functional
[3] = system: SF-295; experiment: Cytotoxicity against human SF295 cells after 48 hrs by trypan blue assay; format: functional, cell-based
[4] = system: BXPC-3; experiment: Cell cycle arrest in human BxPC3 cells assessed as accumulation at < G1 phase at 50 uM after 24 hrs by propidium iodide staining based flow cytometry (reference value: 9%); format: functional
[5] = system: IGROV-1; experiment: Induction of apoptosis in human IGROV1 cells assessed as cleaved caspase-3 containing cells at 15 uM after 24 hrs by FACS analysis (reference value: 4%); format: functional
[6] = system: BXPC-3; experiment: Induction of apoptosis in human BxPC3 cells assessed as early apoptotic cells at 5 uM after 24 hrs by Annexin V/7-AAD staining based flow cytometry (reference value: 11%); format: functional
[7] = system: BXPC-3; experiment: Induction of apoptosis in human BxPC3 cells assessed as late apoptotic cells at 50 uM after 24 hrs by Annexin V/7-AAD staining based flow cytometry (reference value: 9%); format: functional
[8] = system: Mus musculus; experiment: Toxicity in SCID mouse assessed as mortality at 40 mg/kg, ip after 3 to 4 weeks chronic treatment; format: organism-based; parameters: dose 40 mg/kg, route intraperitoneal; details: in vivo
[9] = system: PC-3; experiment: Induction of apoptosis in human PC3 cells assessed as healthy cells at 5 uM after 24 hrs by Annexin V/7-AAD staining based flow cytometry (reference value: 92%); format: functional
[10] = system: BXPC-3; experiment: Induction of apoptosis in human BxPC3 cells assessed as early apoptotic cells at 15 uM after 24 hrs by Annexin V/7-AAD staining based flow cytometry (reference value: 11%); format: functional
[11] = system: IGROV-1; experiment: Induction of apoptosis in human IGROV1 cells assessed as late apoptotic cells at 15 uM after 24 hrs by Annexin V/7-AAD staining based flow cytometry (reference value: 4%); format: functional
[12] = system: IGROV-1; experiment: Cell cycle arrest in human IGROV1 cells assessed as accumulation at S phase at 15 uM after 24 hrs by propidium iodide staining based flow cytometry (reference value: 29%); format: functional
[13] = system: IGROV-1; experiment: Induction of apoptosis in human IGROV1 cells assessed as early apoptotic cells at 50 uM after 24 hrs by Annexin V/7-AAD staining based flow cytometry (reference value: 9%); format: functional
[14] = system: PC-3; experiment: Induction of apoptosis in human PC3 cells assessed as early apoptotic cells at 50 uM after 24 hrs by Annexin V/7-AAD staining based flow cytometry (reference value: 5%); format: functional
[15] = system: IGROV-1; experiment: Induction of apoptosis in human IGROV1 cells assessed as total apoptotic death cells at 15 uM after 24 hrs by Annexin V/7-AAD staining based flow cytometry (reference value: 13%); format: functional
[16] = system: IGROV-1; experiment: Cell cycle arrest in human IGROV1 cells assessed as accumulation at G1 phase at 15 uM after 24 hrs by propidium iodide staining based flow cytometry (reference value: 27%); format: functional
[17] = system: IGROV-1; experiment: Cell cycle arrest in human IGROV1 cells assessed as accumulation at >G2 phase at 5 uM after 24 hrs by propidium iodide staining based flow cytometry (reference value: 21%); format: functional
[18] = system: BXPC-3; experiment: Induction of apoptosis in human BxPC3 cells assessed as healthy cells at 5 uM after 24 hrs by Annexin V/7-AAD staining based flow cytometry (reference value: 77%); format: functional
[19] = system: PC-3; experiment: Cell cycle arrest in human PC3 cells assessed as accumulation at G1 phase at 0.5 uM after 24 hrs by propidium iodide staining based flow cytometry (reference value: 36%); format: functional
[20] = system: BXPC-3; experiment: Induction of apoptosis in human BxPC3 cells assessed as cleaved caspase-3 containing cells at 5 uM after 24 hrs by FACS analysis (reference value: 10%); format: functional
[21] = system: BXPC-3; experiment: Cell cycle arrest in human BxPC3 cells assessed as accumulation at < G1 phase at 5 uM after 24 hrs by propidium iodide staining based flow cytometry (reference value: 9%); format: functional
[22] = system: IGROV-1; experiment: Induction of apoptosis in human IGROV1 cells assessed as early apoptotic cells at 15 uM after 24 hrs by Annexin V/7-AAD staining based flow cytometry (reference value: 9%); format: functional
[23] = system: BXPC-3; experiment: Cell cycle arrest in human BxPC3 cells assessed as accumulation at G1 phase at 50 uM after 24 hrs by propidium iodide staining based flow cytometry (reference value: 41%); format: functional
[24] = system: PC-3; experiment: Induction of apoptosis in human PC3 cells assessed as cleaved caspase-3 containing cells at 50 uM after 24 hrs by FACS analysis (reference value: 3%); format: functional
[25] = system: PC-3; experiment: Cell cycle arrest in human PC3 cells assessed as accumulation at S phase at 0.5 uM after 24 hrs by propidium iodide staining based flow cytometry (reference value: 42%); format: functional
[26] = system: NCI-H69; experiment: Growth inhibition of human NCI-H69 cells after 48 hrs by SRB assay; format: functional; details: NCI-H69, 48 h
[27] = system: PC-3; experiment: Cell cycle arrest in human PC3 cells assessed as accumulation at >G2 phase at 15 uM after 24 hrs by propidium iodide staining based flow cytometry (reference value: 6%); format: functional
[28] = system: BXPC-3; experiment: Induction of apoptosis in human BxPC3 cells assessed as cleaved caspase-3 containing cells at 15 uM after 24 hrs by FACS analysis (reference value: 10%); format: functional
[29] = system: IGROV-1; experiment: Cell cycle arrest in human IGROV1 cells assessed as accumulation at G2 phase at 0.5 uM after 24 hrs by propidium iodide staining based flow cytometry (reference value: 19%); format: functional
[30] = biological target: Sigma non-opioid intracellular receptor 1 (Homo sapiens, UniProt Q99720); experiment: Displacement of [3H](+)pentazocine from sigma-1 receptor expressed in human Jurkat cell membranes after 2 hrs by liquid scintillation spectroscopy
[31] = system: BXPC-3; experiment: Cell cycle arrest in human BxPC3 cells assessed as accumulation at S phase at 50 uM after 24 hrs by propidium iodide staining based flow cytometry (reference value: 33%); format: functional
[32] = system: PC-3; experiment: Cell cycle arrest in human PC3 cells assessed as accumulation at >G2 phase at 0.5 uM after 24 hrs by propidium iodide staining based flow cytometry (reference value: 6%); format: functional
[33] = system: BXPC-3; experiment: Cell cycle arrest in human BxPC3 cells assessed as accumulation at >G2 phase at 0.5 uM after 24 hrs by propidium iodide staining based flow cytometry (reference value: 6%); format: functional
[34] = system: Mus musculus; experiment: Analgesic activity against formalin-induced neuropathic pain in paclitaxel treated CD1 mouse assessed as decrease of time spent in paw licking at 100 mg/kg, po administered 14 days post paclitaxel dosing and 1 hr prior formalin challenge measured for 35 to 40 mins post formalin challenge; format: functional, organism-based; parameters: dose 100 mg/kg
[35] = system: HCT-15; experiment: Growth inhibition of human HCT15 cells after 48 hrs by SRB assay; format: functional; details: HCT-15, 48 h
[36] = system: IGROV-1; experiment: Induction of apoptosis in human IGROV1 cells assessed as early apoptotic cells at 5 uM after 24 hrs by Annexin V/7-AAD staining based flow cytometry (reference value: 9%); format: functional
[37] = system: BXPC-3; experiment: Induction of apoptosis in human BxPC3 cells assessed as total apoptotic death cells at 50 uM after 24 hrs by Annexin V/7-AAD staining based flow cytometry (reference value: 20%); format: functional

Sigma non-opioid intracellular receptor 1, sequence (Q99720 whole entry): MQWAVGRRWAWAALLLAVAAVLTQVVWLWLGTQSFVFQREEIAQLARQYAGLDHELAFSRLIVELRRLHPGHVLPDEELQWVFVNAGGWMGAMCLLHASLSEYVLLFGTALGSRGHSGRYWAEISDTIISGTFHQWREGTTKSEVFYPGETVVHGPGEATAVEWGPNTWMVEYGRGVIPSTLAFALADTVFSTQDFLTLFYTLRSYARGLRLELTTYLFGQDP

Compound: CN1CCN(c2ccc(C(c3ccccc3)C34CC5CC(CC(C5)C3)C4)cc2)CC1 (stereo not given)
- Activity [1]: 9%
- Activity [2]: 16%
- Activity [3]: Active
- Activity [4]: 25%
- Activity [5]: 30%
- Activity [6]: 17%
- Activity [7]: 33%
- Activity [8]: Non-toxic
- Activity [9]: 92%
- Activity [10]: 12%
- Activity [11]: 15%
- Activity [12]: 27%
- Activity [13]: 46%
- Activity [14]: 24%
- Activity [15]: 33%
- Activity [16]: 21%
- Activity [17]: 21%
- Activity [18]: 65%
- Activity [19]: 33%
- Activity [20]: 5%
- Activity [21]: 8%
- Activity [22]: 18%
- Activity [23]: 33%
- Activity [24]: 18%
- Activity [25]: 40%
- GI50 [26]: 7.09 µM
- CC50 ([26]; read-out: LC50 (the source's name)): 100 µM
- Activity [27]: 5%
- Activity [28]: 11%
- Activity [29]: 20%
- pIC50 [30]: 8.49
- Activity [31]: 24%
- Activity [32]: 4%
- Activity [33]: 8%
- Activity [34]: Active
- GI50 [35]: 5.54 µM
- LC50 [35]: 100 µM
- TGI [35]: 12.8 µM
- Activity [36]: 8%
- Activity [37]: 48%
